The results in this text go back to ChEMBL document CHEMBL1148814, “Novel class of quinone-bearing polyamines as multi-target-directed ligands to combat Alzheimer's disease” (J Med Chem, 2007).

Calls of active or inactive are those of the source. The calls are words filed in the database; no cut-off is given here.

For the first test, the target named is Acetylcholinesterase (Homo sapiens, UniProt P22303).
Chain of Acetylcholinesterase (P22303 whole entry): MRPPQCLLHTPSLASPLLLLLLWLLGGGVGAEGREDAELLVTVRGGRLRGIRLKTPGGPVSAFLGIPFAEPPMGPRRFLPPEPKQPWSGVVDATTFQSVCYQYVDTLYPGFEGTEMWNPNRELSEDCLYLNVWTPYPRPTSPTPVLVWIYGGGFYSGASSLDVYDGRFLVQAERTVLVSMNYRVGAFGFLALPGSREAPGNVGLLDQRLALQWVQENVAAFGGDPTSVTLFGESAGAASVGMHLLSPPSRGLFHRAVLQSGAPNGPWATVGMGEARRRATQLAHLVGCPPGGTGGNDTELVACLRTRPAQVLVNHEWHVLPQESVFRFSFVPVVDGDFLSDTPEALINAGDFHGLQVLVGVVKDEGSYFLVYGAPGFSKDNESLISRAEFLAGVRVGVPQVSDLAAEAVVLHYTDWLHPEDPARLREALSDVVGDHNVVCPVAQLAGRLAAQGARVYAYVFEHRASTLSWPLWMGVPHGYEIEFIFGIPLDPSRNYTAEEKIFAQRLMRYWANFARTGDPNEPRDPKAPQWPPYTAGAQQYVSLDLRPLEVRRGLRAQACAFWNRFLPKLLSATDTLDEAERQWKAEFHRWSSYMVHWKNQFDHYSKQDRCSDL
Description: Inhibition of human recombinant acetylcholinesterase
What is called IC50 is the midpoint of a concentration-inhibition curve. `CCN(CCCCCCNC1=C(Cl)C(=O)C(NCCCCCCN(CC)Cc2ccccc2OC)=C(Cl)C1=O)Cc1ccccc1OC` had an IC50 of 3.05 nM.
In turn, `CCN(CCCCCCNC1=CC(=O)C(NCCCCCCN(CC)Cc2ccccn2)=CC1=O)Cc1ccccn1` yielded an IC50 of 125 nM.
`CCN(CCCCCCNC1=CC(=O)C(NCCCCCCN(CC)Cc2cccs2)=CC1=O)Cc1cccs1` displayed an IC50 of 60.4 nM.
Same read-out and setting: in the case of `CCN(CCCCCCNC1=CC(=O)C(NCCCCCCN(CC)Cc2cccnc2)=CC1=O)Cc1cccnc1` it was 133 nM; in that of `CCN(CCCCCCNC1=CC(=O)C(NCCCCCCN(CC)CCc2ccccc2OC)=CC1=O)CCc1ccccc1OC`, 17.3 nM; in that of `CCN(Cc1ccccc1OC)C(=O)CCCCCNC1=CC(=O)C(NCCCCCC(=O)N(CC)Cc2ccccc2OC)=CC1=O`, 11600 nM.
Regarding `CCN(CCCCNC1=CC(=O)C(NCCCCN(CC)Cc2ccccc2OC)=CC1=O)Cc1ccccc1OC`, half-maximal inhibition (IC50) was put at 13.6 nM.
Still for that read-out and setting: under `CCN(CCCCCCNc1ccc(NCCCCCCN(CC)Cc2ccccc2OC)cc1)Cc1ccccc1OC` stands 42.5 nM; under `COc1ccccc1CN(CCCCCCNC1=CC(=O)C(NCCCCCCN(Cc2ccccc2OC)C(C)C)=CC1=O)C(C)C`, 12.9 nM; under `CCN(CCCCCCNC1=CC(=O)C(NCCCCCCN(CC)Cc2ccncc2)=CC1=O)Cc1ccncc1`, 192 nM.
`CCN(CCCCCCNC1=CC(=O)C(NCCCCCCN(CC)Cc2ccccc2C)=CC1=O)Cc1ccccc1C` yielded an IC50 of 71.9 nM.
For the compound `CCN(CCCCCNC1=CC(=O)C(NCCCCCN(CC)Cc2ccccc2OC)=CC1=O)Cc1ccccc1OC`, the IC50 stood at 2.36 nM.
Same read-out and setting: under `CCN(CCCCCCNC1=C(c2ccccc2)C(=O)C(NCCCCCCN(CC)Cc2ccccc2OC)=C(c2ccccc2)C1=O)Cc1ccccc1OC` stands 123 nM.

The subject of another test is SH-SY5Y. The test can be described thus: Antioxidant activity in human SHSY5Y cells overexpressing NQO1 assessed as increase in tert-butyl hydroperoxide evoked-intracellular ROS formation at 3 uM after 24 hrs relative to control. It counts as functional.
For `CCN(CCCCCCNC1=C(Br)C(=O)C(NCCCCCCN(CC)Cc2ccccc2OC)=C(Br)C1=O)Cc1ccccc1OC`, the Activity is recorded as 42.12%.
Still for that read-out and setting: under `CCN(CCCCCCNc1ccc(NCCCCCCN(CC)Cc2ccccc2OC)cc1)Cc1ccccc1OC` stands 49.54%; under `CCN(CCCCCCNC1=CC(=O)C(NCCCCCCN(CC)Cc2ccccc2OC)=CC1=O)Cc1ccccc1OC` [MEMOQUIN], 30.5%.

A further test concerns SH-SY5Y. As to the kind of experiment: Antioxidant activity in human SHSY5Y cells overexpressing NQO1 assessed as increase in tert-butyl hydroperoxide evoked-intracellular ROS formation at 0.3 uM after 24 hrs relative to control. It counts as functional.
With `CCN(CCCCCCNC1=C(Br)C(=O)C(NCCCCCCN(CC)Cc2ccccc2OC)=C(Br)C1=O)Cc1ccccc1OC`, the Activity was 52.35%.
`CCN(CCCCCCNc1ccc(NCCCCCCN(CC)Cc2ccccc2OC)cc1)Cc1ccccc1OC`: the Activity was determined as 50.45%.
The same measure, in the same setting: under `CCN(CCCCCCNC1=CC(=O)C(NCCCCCCN(CC)Cc2ccccc2OC)=CC1=O)Cc1ccccc1OC` [MEMOQUIN] stands 49.94%.

For the next test, the system named is SH-SY5Y. As to the kind of experiment: Antioxidant activity in human SHSY5Y cells overexpressing NQO1 assessed as increase in tert-butyl hydroperoxide evoked-intracellular ROS formation at 1 uM after 24 hrs relative to control. It is filed as functional.
For `CCN(CCCCCCNC1=C(Br)C(=O)C(NCCCCCCN(CC)Cc2ccccc2OC)=C(Br)C1=O)Cc1ccccc1OC`, the Activity is reported as 50.43%.
For `CCN(CCCCCCNc1ccc(NCCCCCCN(CC)Cc2ccccc2OC)cc1)Cc1ccccc1OC`, the Activity worked out at 51.35%.
The same measure, in the same setting: in the case of `CCN(CCCCCCNC1=CC(=O)C(NCCCCCCN(CC)Cc2ccccc2OC)=CC1=O)Cc1ccccc1OC` [MEMOQUIN] it was 40.25%.

For another test, the target named is Cholinesterase (Homo sapiens, UniProt P06276).
Chain of Cholinesterase (P06276 whole entry): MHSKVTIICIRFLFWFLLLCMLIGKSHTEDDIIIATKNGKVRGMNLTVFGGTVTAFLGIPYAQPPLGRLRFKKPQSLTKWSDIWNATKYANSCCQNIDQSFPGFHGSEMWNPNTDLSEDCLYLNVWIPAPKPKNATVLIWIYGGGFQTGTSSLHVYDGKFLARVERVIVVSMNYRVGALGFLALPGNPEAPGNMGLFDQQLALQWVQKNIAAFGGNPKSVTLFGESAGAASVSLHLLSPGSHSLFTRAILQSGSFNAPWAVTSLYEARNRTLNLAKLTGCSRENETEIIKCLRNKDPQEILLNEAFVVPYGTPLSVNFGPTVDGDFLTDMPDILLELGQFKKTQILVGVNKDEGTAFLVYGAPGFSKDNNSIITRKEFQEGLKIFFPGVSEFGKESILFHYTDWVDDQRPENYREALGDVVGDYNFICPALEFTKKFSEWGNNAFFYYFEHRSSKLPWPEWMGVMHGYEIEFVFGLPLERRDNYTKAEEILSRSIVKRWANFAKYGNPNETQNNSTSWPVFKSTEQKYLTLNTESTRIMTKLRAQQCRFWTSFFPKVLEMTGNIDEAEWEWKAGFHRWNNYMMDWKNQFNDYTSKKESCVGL
Description: Inhibition of human recombinant butyrylcholinesterase
Consider `CCN(CCCCCCNC1=C(Cl)C(=O)C(NCCCCCCN(CC)Cc2ccccc2OC)=C(Cl)C1=O)Cc1ccccc1OC`, for which the IC50 came to 800 nM.
Still for that read-out and setting: in the case of `CCN(CCCCCCNC1=CC(=O)C(NCCCCCCN(CC)Cc2ccccn2)=CC1=O)Cc1ccccn1` it was 2470 nM; in that of `CCN(CCCCCCNC1=CC(=O)C(NCCCCCCN(CC)Cc2ccco2)=CC1=O)Cc1ccco1`, 3410 nM; in that of `CCN(CCCCCCNC1=CC(=O)C(NCCCCCCN(CC)Cc2cccs2)=CC1=O)Cc1cccs1`, 2790 nM.
Turning to `CCN(CCCCCCNC1=C(Br)C(=O)C(NCCCCCCN(CC)Cc2ccccc2OC)=C(Br)C1=O)Cc1ccccc1OC`, the IC50 was found to be 696 nM.
On the same count and under the same terms, under `CCN(CCCCCCNC1=CC(=O)C(NCCCCCCN(CC)Cc2cccnc2)=CC1=O)Cc1cccnc1` stands 11900 nM; under `CCN(CCCCCCNC1=CC(=O)C(NCCCCCCN(CC)Cc2ccc(OC)cc2)=CC1=O)Cc1ccc(OC)cc1`, 2390 nM.
`CCN(CCCCCCNC1=CC(=O)C(NCCCCCCN(CC)CCc2ccccc2OC)=CC1=O)CCc1ccccc1OC`: the IC50 was 518 nM.
In turn, `CCN(Cc1ccccc1OC)C(=O)CCCCCNC1=CC(=O)C(NCCCCCC(=O)N(CC)Cc2ccccc2OC)=CC1=O` displayed an IC50 of 18500 nM.
Regarding `CCN(CCCCCCNC1=CC(=O)C(NCCCCCCN(CC)Cc2ccccc2[N+](=O)[O-])=CC1=O)Cc1ccccc1[N+](=O)[O-]`, half-maximal inhibition (IC50) was put at 67100 nM.
In turn, `CCN(CCCCNC1=CC(=O)C(NCCCCN(CC)Cc2ccccc2OC)=CC1=O)Cc1ccccc1OC` came in with an IC50 of 12800 nM.
In turn, `CCN(CCCNC1=CC(=O)C(NCCCN(CC)Cc2ccccc2OC)=CC1=O)Cc1ccccc1OC` had an IC50 of 9840 nM.
The compound `CCN(CCCCCCNc1ccc(NCCCCCCN(CC)Cc2ccccc2OC)cc1)Cc1ccccc1OC` yielded an IC50 of 505 nM.
Still for that read-out and setting: under `COc1ccccc1CN(CCCCCCNC1=CC(=O)C(NCCCCCCN(Cc2ccccc2OC)C(C)C)=CC1=O)C(C)C` stands 660 nM; under `CCN(CCCCCCNC1=CC(=O)C(NCCCCCCN(CC)Cc2cccc(OC)c2)=CC1=O)Cc1cccc(OC)c1`, 1690 nM; under `CCN(CCCCCCNC1=CC(=O)C(NCCCCCCN(CC)Cc2ccncc2)=CC1=O)Cc1ccncc1`, 70100 nM.
The compound `CCN(CCCCCCNC1=CC(=O)C(NCCCCCCN(CC)Cc2ccccc2C)=CC1=O)Cc1ccccc1C` came in with an IC50 of 2080 nM.
`CCN(CCCCCNC1=CC(=O)C(NCCCCCN(CC)Cc2ccccc2OC)=CC1=O)Cc1ccccc1OC` showed an IC50 of 3460 nM.
On the same count and under the same terms, in the case of `CCN(CCCCCCNC1=C(c2ccccc2)C(=O)C(NCCCCCCN(CC)Cc2ccccc2OC)=C(c2ccccc2)C1=O)Cc1ccccc1OC` it was 2250 nM.

A further test deals with NAD(P)H dehydrogenase [quinone] 1 (Homo sapiens) (UniProt P15559). As to the kind of experiment: Activity of NQO1 enzyme.
Chain of NAD(P)H dehydrogenase [quinone] 1 (Homo sapiens) (P15559 whole entry): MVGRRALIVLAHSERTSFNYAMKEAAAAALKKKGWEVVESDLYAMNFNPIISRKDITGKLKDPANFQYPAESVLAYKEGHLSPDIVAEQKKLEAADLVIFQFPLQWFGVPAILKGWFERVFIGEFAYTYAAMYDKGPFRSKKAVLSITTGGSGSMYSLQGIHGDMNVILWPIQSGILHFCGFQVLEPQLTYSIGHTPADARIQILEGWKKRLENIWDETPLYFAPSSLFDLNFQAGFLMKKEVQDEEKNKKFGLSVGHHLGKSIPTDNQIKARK
For the compound `CCN(CCCCCCNc1ccc(NCCCCCCN(CC)Cc2ccccc2OC)cc1)Cc1ccccc1OC`, the result was inactive.

The subject of the next test is SH-SY5Y. As to the kind of experiment: Antioxidant activity in human SHSY5Y cells overexpressing NQO1 assessed as increase in tert-butyl hydroperoxide evoked-intracellular ROS formation at 0.1 uM after 24 hrs relative to control. It counts as functional.
With `CCN(CCCCCCNC1=C(Br)C(=O)C(NCCCCCCN(CC)Cc2ccccc2OC)=C(Br)C1=O)Cc1ccccc1OC`, the Activity was determined as 50.51%.
`CCN(CCCCCCNc1ccc(NCCCCCCN(CC)Cc2ccccc2OC)cc1)Cc1ccccc1OC`: the Activity worked out at 54.2%.
Regarding `CCN(CCCCCCNC1=CC(=O)C(NCCCCCCN(CC)Cc2ccccc2OC)=CC1=O)Cc1ccccc1OC` [MEMOQUIN], the Activity stood at 53%.
